In the NIST ThermoML archive (doi:10.1016/j.jct.2007.07.005):

Assay: xn = mol fraction of the nth substance listed
Conditions: Fluid (supercritical or subcritical phases), vibrating tube

CCCCCO [pentan-1-ol] + O=C=O
Conditions | mass density [kg/m3]
342.95 K, 17053 kPa, x2 = 0.6054 | 811.1
342.95 K, 18061 kPa, x2 = 0.6054 | 813.31
342.95 K, 19049 kPa, x2 = 0.6054 | 815.42
342.95 K, 20084 kPa, x2 = 0.6054 | 817.54
342.95 K, 21075 kPa, x2 = 0.6054 | 819.56
342.95 K, 22070 kPa, x2 = 0.6054 | 821.54
342.95 K, 23069 kPa, x2 = 0.6054 | 823.48
342.95 K, 24068 kPa, x2 = 0.6054 | 825.37
342.95 K, 25106 kPa, x2 = 0.6054 | 827.29
342.96 K, 7006 kPa, x2 = 0.1347 | 785.93
342.96 K, 8027 kPa, x2 = 0.1347 | 786.83
342.96 K, 9036 kPa, x2 = 0.1347 | 787.79
342.96 K, 10053 kPa, x2 = 0.1347 | 788.74
342.96 K, 11003 kPa, x2 = 0.1347 | 789.61
342.96 K, 12025 kPa, x2 = 0.1347 | 790.55
342.96 K, 13042 kPa, x2 = 0.1347 | 791.48
342.96 K, 14006 kPa, x2 = 0.1347 | 792.33
342.96 K, 15009 kPa, x2 = 0.1347 | 793.22
342.96 K, 16036 kPa, x2 = 0.1347 | 794.12
342.96 K, 17009 kPa, x2 = 0.1347 | 794.98
342.96 K, 18011 kPa, x2 = 0.1347 | 795.84
342.96 K, 19019 kPa, x2 = 0.1347 | 796.7
342.96 K, 20016 kPa, x2 = 0.1347 | 797.55
342.96 K, 20998 kPa, x2 = 0.1347 | 798.37
342.96 K, 22010 kPa, x2 = 0.1347 | 799.2
342.96 K, 23002 kPa, x2 = 0.1347 | 800.03
342.96 K, 24085 kPa, x2 = 0.1347 | 800.92
342.96 K, 25038 kPa, x2 = 0.1347 | 801.69
352.71 K, 508 kPa, x2 = 0 | 768.15
352.71 K, 1011 kPa, x2 = 0 | 768.66
352.71 K, 1995 kPa, x2 = 0 | 769.61
352.71 K, 3014 kPa, x2 = 0 | 770.57
352.71 K, 3998 kPa, x2 = 0 | 771.49
352.71 K, 5022 kPa, x2 = 0 | 772.45
352.71 K, 6012 kPa, x2 = 0 | 773.35
352.71 K, 7006 kPa, x2 = 0 | 774.26
352.71 K, 8024 kPa, x2 = 0 | 775.17
352.71 K, 9005 kPa, x2 = 0 | 776.05
352.71 K, 10016 kPa, x2 = 0 | 776.94
352.71 K, 11026 kPa, x2 = 0 | 777.81
352.71 K, 12001 kPa, x2 = 0 | 778.65
352.71 K, 13002 kPa, x2 = 0 | 779.5
352.71 K, 14026 kPa, x2 = 0 | 780.35
352.71 K, 15000 kPa, x2 = 0 | 781.18
352.71 K, 16005 kPa, x2 = 0 | 781.98
352.71 K, 17023 kPa, x2 = 0 | 782.81
352.71 K, 18003 kPa, x2 = 0 | 783.59
352.71 K, 19049 kPa, x2 = 0 | 784.43
352.71 K, 20035 kPa, x2 = 0 | 785.2
352.71 K, 21002 kPa, x2 = 0 | 785.96
352.71 K, 21995 kPa, x2 = 0 | 786.73
352.71 K, 23020 kPa, x2 = 0 | 787.52
352.71 K, 24045 kPa, x2 = 0 | 788.32
352.71 K, 25009 kPa, x2 = 0 | 789.05
352.73 K, 17393 kPa, x2 = 0.9757 | 574.15
352.73 K, 18036 kPa, x2 = 0.9757 | 591.88
352.73 K, 19032 kPa, x2 = 0.9757 | 616.27
352.73 K, 20013 kPa, x2 = 0.9757 | 637.17
352.73 K, 21057 kPa, x2 = 0.9757 | 656.66
352.73 K, 22011 kPa, x2 = 0.9757 | 672.48
352.73 K, 23064 kPa, x2 = 0.9757 | 688.28
352.73 K, 24053 kPa, x2 = 0.9757 | 701.67
